Key:
[1] = target: Cyclin-dependent kinase-like 1 (Homo sapiens) (UniProt Q00532); conditions: Compound concentration 1000.0 nM
[2] = target: Cyclin-dependent kinase 5/CDK5 activator 1 (Homo sapiens) (UniProt Q00535+Q15078); test: CDK5/P25 Invitrogen selectivity data (BI); format: protein-complex assay; conditions: Compound concentration 3.0 uM
[3] = target: Macrophage colony-stimulating factor 1 receptor (Homo sapiens) (UniProt P07333); test: CSF1R Invitrogen selectivity data (BI); conditions: Compound concentration 3.0 uM
[4] = target: Serine/threonine-protein kinase 33 (Homo sapiens) (UniProt Q9BYT3); test: STK33 Invitrogen selectivity data (BI); conditions: Compound concentration 3.0 uM
[5] = target: Receptor tyrosine-protein kinase erbB-4 (Homo sapiens) (UniProt Q15303); test: ERBB4 Invitrogen selectivity data (BI); conditions: Compound concentration 3.0 uM
[6] = target: Neuronal acetylcholine receptor; alpha4/beta2 (Homo sapiens) (UniProt P17787+P43681); test: N_NEURO_A4B2 Cerep selectivity data (BI); format: protein-complex assay; conditions: filed as agonist, Compound concentration 20.0 uM
[7] = species on record: Homo sapiens; test: MLCK Invitrogen selectivity data (BI); conditions: Compound concentration 3.0 uM
[8] = target: Receptor-type tyrosine-protein kinase FLT3 (Homo sapiens) (UniProt P36888); test: FLT3 Invitrogen selectivity data (BI); conditions: Compound concentration 3.0 uM
[9] = system: Platelet-derived growth factor receptor alpha (Homo sapiens), P16234 [D842V]; test: PDGFRA D842V Invitrogen selectivity data (BI); conditions: Compound concentration 3.0 uM
[10] = target: Protein kinase C beta type (Homo sapiens) (UniProt P05771); test: PRKCB1 Invitrogen selectivity data (BI); conditions: Compound concentration 3.0 uM
[11] = target: Glycogen synthase kinase-3 beta (Homo sapiens) (UniProt P49841); test: GSK3B Invitrogen selectivity data (BI); conditions: Compound concentration 3.0 uM
[12] = target: Voltage-dependent N-type calcium channel subunit alpha-1B (Rattus norvegicus) (UniProt Q02294); test: CA+/N/R Cerep selectivity data (BI); conditions: Compound concentration 20.0 uM
[13] = target: Sodium-dependent dopamine transporter (Homo sapiens, UniProt Q01959); test: DATRANS/H Eurofins-Panlabs selectivity data (BI); conditions: Compound concentration 10.0 uM
[14] = target: 3-phosphoinositide-dependent protein kinase 1 (Homo sapiens) (UniProt O15530); test: PDK1DIRECT Invitrogen selectivity data (BI); conditions: Compound concentration 3.0 uM
[15] = system: Mast/stem cell growth factor receptor Kit (Homo sapiens), P10721 [V654A]; test: KIT_V654A Invitrogen selectivity data (BI); conditions: Compound concentration 3.0 uM
[16] = target: 5-hydroxytryptamine receptor 1D (Homo sapiens) (UniProt P28221); test: 5HT1D/H AG Cerep selectivity data (BI); conditions: filed as agonist, Compound concentration 20.0 uM
[17] = target: Tyrosine-protein kinase ABL1 (Homo sapiens) (UniProt P00519); test: ABL_CE Cerep selectivity data (BI); conditions: Compound concentration 20.0 uM
[18] = system: Tyrosine-protein kinase ABL1 (Homo sapiens), P00519 [T315I]; test: ABL1 T315I Invitrogen selectivity data (BI); conditions: Compound concentration 3.0 uM
[19] = target: Serine/threonine-protein kinase PAK 1 (Homo sapiens) (UniProt Q13153); test: PAK1 Invitrogen selectivity data (BI); conditions: Compound concentration 3.0 uM
[20] = target: Estrogen receptor (Homo sapiens) (UniProt P03372); test: ER_ALPHA_AGON Cerep selectivity data (BI); conditions: filed as agonist, Compound concentration 20.0 uM
[21] = target: MAP/microtubule affinity-regulating kinase 3 (Homo sapiens) (UniProt P27448); test: MARK3 Invitrogen selectivity data (BI); conditions: Compound concentration 3.0 uM
[22] = target: Beta-2 adrenergic receptor (Homo sapiens) (UniProt P07550); test: BETA2/HU Eurofins-Panlabs selectivity data (BI); conditions: Compound concentration 10.0 uM
[23] = target: Vasopressin V1a receptor (Homo sapiens) (UniProt P37288); test: V1A/HUM Cerep selectivity data (BI); conditions: Compound concentration 20.0 uM
[24] = target: Phosphatidylinositol 4-kinase alpha (Homo sapiens) (UniProt P42356); test: PI4KA Invitrogen selectivity data (BI); conditions: Compound concentration 3.0 uM
[25] = target: Guanylate cyclase soluble subunit alpha-1 (Bos taurus) (UniProt P19687); test: GUACYCBASAL Cerep selectivity data (BI); conditions: Homo sapiens; Compound concentration 20.0 uM
[26] = target: Dual specificity tyrosine-phosphorylation-regulated kinase 4 (Homo sapiens) (UniProt Q9NR20); test: DYRK4 Invitrogen selectivity data (BI); conditions: Compound concentration 3.0 uM
[27] = target: Eukaryotic elongation factor 2 kinase (Homo sapiens) (UniProt O00418); test: EEF2K Invitrogen selectivity data (BI); conditions: Compound concentration 3.0 uM
[28] = target: Tyrosine-protein kinase Lyn (Homo sapiens) (UniProt P07948); test: LYN B Invitrogen selectivity data (BI); conditions: Compound concentration 3.0 uM
[29] = target: Platelet-derived growth factor receptor alpha (Homo sapiens) (UniProt P16234); test: PDGFRA Invitrogen selectivity data (BI); conditions: Compound concentration 3.0 uM
[30] = target: Platelet-derived growth factor receptor beta (Homo sapiens) (UniProt P09619); test: PDGFRB Invitrogen selectivity data (BI); conditions: Compound concentration 3.0 uM
[31] = target: Serine/threonine-protein kinase SIK2 (Homo sapiens) (UniProt Q9H0K1); test: SNF1LK2 Invitrogen selectivity data (BI); conditions: Compound concentration 3.0 uM
[32] = target: cAMP-dependent protein kinase catalytic subunit alpha (Homo sapiens) (UniProt P17612); test: PRKACA Invitrogen selectivity data (BI); conditions: Compound concentration 3.0 uM
[33] = target: Beta-secretase 1 (Homo sapiens) (UniProt P56817); test: BACE-1 Cerep selectivity data (BI); conditions: Compound concentration 20.0 uM
[34] = target: T1, Muscle, skeletal receptor tyrosine-protein kinase (Homo sapiens) (UniProt O15146); test: MUSK Invitrogen selectivity data (BI); conditions: Compound concentration 3.0 uM
T1 sequence (whole entry): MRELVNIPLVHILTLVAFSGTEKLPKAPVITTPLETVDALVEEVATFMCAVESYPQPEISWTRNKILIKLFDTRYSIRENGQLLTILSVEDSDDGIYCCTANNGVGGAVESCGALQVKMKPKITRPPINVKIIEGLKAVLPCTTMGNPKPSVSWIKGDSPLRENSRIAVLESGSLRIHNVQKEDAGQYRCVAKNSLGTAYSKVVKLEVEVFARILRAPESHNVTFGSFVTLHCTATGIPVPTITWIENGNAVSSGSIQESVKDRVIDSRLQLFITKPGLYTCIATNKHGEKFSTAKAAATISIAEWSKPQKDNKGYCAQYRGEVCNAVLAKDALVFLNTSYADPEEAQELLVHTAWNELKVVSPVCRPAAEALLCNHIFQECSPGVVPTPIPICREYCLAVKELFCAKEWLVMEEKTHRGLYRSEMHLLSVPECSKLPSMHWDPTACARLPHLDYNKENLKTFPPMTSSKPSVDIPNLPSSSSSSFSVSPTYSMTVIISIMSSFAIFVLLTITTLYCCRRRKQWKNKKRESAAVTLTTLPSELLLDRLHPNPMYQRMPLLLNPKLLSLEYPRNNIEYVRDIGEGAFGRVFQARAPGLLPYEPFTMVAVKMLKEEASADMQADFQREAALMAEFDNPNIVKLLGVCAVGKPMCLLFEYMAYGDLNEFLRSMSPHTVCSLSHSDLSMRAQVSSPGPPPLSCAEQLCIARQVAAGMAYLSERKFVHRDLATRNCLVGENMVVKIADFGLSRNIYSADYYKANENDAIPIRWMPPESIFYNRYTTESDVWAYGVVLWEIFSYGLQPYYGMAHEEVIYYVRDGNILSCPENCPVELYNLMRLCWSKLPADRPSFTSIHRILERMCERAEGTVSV

MAP/microtubule affinity-regulating kinase 3 (Homo sapiens), sequence (P27448 whole entry, looked up): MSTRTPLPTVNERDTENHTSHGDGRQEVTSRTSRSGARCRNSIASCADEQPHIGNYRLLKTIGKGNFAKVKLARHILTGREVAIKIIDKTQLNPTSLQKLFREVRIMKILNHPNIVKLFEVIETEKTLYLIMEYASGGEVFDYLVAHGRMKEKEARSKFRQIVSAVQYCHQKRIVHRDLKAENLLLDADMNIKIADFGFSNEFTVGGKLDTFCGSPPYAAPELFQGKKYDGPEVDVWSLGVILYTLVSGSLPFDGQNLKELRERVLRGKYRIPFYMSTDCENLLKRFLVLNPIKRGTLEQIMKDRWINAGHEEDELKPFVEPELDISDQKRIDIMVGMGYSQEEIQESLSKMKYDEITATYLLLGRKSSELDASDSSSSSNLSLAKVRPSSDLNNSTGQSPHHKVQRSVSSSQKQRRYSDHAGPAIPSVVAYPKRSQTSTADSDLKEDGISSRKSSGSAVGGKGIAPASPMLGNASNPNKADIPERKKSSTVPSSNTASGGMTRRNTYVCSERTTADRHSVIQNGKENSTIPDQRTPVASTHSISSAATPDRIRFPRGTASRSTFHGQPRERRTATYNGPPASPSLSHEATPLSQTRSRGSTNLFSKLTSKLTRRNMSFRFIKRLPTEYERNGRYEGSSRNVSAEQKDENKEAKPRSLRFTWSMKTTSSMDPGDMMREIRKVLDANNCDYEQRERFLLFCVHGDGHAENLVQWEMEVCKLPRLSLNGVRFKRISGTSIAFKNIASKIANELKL
Glycogen synthase kinase-3 beta (Homo sapiens), sequence (P49841 whole entry, looked up): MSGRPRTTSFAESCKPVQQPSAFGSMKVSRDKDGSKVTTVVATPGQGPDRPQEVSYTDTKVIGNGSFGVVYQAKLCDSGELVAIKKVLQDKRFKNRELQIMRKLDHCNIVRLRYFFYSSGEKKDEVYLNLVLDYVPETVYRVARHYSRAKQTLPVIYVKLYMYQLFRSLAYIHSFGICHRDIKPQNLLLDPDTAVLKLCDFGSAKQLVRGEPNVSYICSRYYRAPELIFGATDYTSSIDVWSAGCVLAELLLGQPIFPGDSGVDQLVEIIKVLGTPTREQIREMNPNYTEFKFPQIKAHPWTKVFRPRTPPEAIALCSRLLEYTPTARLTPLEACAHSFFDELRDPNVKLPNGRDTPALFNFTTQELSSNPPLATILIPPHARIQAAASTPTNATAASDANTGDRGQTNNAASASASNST
Cyclin-dependent kinase-like 1 (Homo sapiens), sequence (Q00532 whole entry): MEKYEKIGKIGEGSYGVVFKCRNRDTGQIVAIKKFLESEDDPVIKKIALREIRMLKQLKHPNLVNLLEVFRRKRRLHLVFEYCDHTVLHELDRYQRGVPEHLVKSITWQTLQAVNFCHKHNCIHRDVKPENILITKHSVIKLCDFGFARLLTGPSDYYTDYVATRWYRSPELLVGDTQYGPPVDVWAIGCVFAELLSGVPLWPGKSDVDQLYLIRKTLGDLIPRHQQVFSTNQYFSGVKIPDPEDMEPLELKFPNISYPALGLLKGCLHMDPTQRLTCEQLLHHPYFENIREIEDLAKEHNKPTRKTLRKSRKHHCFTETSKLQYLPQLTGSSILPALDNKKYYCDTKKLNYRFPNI
Estrogen receptor (Homo sapiens), sequence (P03372 whole entry): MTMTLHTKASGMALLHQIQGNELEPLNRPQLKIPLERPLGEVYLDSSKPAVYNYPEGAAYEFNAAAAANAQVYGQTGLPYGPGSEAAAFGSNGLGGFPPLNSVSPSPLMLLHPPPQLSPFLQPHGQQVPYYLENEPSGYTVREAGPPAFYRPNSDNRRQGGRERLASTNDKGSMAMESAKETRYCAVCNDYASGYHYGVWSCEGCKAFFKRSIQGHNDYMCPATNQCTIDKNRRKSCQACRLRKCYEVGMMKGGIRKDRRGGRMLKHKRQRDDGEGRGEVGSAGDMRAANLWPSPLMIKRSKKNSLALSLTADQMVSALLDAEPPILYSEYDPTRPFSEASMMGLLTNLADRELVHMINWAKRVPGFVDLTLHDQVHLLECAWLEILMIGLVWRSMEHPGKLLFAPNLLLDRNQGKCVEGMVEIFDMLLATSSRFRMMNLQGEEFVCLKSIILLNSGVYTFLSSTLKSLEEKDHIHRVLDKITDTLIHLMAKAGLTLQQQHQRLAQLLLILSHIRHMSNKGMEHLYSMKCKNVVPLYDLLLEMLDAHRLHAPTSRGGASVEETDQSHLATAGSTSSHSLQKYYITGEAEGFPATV
Platelet-derived growth factor receptor alpha (Homo sapiens), P16234 [D842V], sequence (P16234 whole entry D842V): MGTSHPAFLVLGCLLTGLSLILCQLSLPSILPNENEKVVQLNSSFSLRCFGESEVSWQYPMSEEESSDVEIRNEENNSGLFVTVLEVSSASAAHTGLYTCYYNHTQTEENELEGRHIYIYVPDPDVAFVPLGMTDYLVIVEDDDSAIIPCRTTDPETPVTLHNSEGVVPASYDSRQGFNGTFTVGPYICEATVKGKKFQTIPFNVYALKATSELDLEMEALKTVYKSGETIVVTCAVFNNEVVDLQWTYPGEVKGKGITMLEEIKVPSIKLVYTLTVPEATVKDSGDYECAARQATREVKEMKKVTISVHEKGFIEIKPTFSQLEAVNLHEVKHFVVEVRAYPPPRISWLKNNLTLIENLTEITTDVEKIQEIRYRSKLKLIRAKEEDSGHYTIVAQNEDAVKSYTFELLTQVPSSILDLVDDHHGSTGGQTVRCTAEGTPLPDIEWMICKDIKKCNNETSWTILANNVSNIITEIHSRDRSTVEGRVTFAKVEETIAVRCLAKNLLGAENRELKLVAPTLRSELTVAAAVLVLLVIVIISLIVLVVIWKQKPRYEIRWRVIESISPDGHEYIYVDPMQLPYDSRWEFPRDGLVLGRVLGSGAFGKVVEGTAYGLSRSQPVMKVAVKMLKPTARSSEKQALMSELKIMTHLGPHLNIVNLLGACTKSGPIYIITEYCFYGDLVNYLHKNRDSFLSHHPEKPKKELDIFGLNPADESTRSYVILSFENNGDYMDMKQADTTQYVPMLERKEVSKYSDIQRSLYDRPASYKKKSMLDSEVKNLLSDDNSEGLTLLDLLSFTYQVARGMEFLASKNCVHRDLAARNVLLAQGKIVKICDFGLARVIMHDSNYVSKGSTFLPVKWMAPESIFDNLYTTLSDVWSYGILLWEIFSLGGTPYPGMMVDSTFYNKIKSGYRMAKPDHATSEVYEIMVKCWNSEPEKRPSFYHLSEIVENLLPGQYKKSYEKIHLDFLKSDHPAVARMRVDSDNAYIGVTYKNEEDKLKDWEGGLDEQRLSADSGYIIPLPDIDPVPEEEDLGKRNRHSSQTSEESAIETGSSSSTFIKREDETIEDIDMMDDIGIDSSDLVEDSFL
Beta-2 adrenergic receptor (Homo sapiens), sequence (P07550 whole entry, looked up): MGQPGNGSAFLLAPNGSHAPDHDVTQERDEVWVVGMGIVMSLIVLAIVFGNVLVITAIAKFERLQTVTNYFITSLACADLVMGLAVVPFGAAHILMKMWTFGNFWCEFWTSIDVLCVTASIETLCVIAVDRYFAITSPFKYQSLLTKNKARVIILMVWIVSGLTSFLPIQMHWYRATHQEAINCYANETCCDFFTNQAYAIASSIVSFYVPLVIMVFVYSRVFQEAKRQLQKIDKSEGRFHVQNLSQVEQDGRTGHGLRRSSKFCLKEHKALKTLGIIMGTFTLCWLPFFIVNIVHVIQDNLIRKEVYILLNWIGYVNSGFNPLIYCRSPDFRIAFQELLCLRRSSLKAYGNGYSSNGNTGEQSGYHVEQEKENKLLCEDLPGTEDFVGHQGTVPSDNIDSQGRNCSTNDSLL
Guanylate cyclase soluble subunit alpha-1 (Bos taurus), sequence (P19687 whole entry): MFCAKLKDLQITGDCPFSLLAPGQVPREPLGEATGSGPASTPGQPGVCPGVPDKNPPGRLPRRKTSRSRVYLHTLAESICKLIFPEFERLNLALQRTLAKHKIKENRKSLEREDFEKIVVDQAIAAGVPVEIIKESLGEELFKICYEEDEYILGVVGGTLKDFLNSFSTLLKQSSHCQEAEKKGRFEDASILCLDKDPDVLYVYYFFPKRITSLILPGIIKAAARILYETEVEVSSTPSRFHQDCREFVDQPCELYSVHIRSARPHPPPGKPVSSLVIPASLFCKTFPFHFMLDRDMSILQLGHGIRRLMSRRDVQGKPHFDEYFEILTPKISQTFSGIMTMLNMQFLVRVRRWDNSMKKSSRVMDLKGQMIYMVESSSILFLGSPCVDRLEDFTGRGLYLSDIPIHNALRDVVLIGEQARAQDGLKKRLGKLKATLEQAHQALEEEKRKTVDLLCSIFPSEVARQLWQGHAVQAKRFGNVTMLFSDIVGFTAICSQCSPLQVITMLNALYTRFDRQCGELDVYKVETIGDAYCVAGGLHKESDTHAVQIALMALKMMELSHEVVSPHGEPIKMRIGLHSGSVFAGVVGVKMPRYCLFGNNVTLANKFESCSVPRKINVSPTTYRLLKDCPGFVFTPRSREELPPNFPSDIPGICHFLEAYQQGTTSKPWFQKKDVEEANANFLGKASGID
3-phosphoinositide-dependent protein kinase 1 (Homo sapiens), sequence (O15530 whole entry, looked up): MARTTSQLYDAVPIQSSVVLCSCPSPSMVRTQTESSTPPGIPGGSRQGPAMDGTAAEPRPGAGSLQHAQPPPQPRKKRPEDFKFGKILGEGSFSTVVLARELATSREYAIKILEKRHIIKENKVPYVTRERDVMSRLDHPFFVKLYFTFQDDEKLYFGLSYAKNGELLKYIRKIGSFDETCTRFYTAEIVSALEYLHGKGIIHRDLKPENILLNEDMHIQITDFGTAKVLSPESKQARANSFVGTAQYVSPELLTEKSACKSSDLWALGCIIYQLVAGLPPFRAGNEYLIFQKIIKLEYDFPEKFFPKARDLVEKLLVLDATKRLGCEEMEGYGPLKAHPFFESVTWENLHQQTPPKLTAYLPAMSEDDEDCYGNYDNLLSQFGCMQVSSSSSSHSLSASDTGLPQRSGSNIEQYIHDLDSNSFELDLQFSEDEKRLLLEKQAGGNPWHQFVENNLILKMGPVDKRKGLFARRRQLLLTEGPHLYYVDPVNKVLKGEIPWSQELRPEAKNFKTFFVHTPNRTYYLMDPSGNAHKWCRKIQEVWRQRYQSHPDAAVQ
Platelet-derived growth factor receptor alpha (Homo sapiens), sequence (P16234 whole entry): as the sequence (P16234 whole entry D842V) above, with V842D counted along it

## CN(C)C(=O)Cn1cc(-c2nc(C3(c4ccc(-c5cnc(N)nc5)cc4)CC3)no2)cn1 [BI 0153]
[1]
  residual activity: 100%

## CN(C)C(=O)Cn1cc(-c2nc([C@@](C)(c3ccc(-c4cnc(N)nc4)cc3)C3CC3)no2)cn1 [BI 665915]
[2]
  residual activity: 100%
[3]
  residual activity: 73%
[4]
  residual activity: 101%
[5]
  residual activity: 98.5%
[6]
  residual activity: 113%
[7]
  residual activity: 98%
[8]
  residual activity: 89%
[9]
  residual activity: 95%
[10]
  residual activity: 98.5%
[11]
  residual activity: 95.5%
[12]
  residual activity: 96%
[13]
  residual activity: 95%
[14]
  residual activity: 97%
[15]
  residual activity: 95%
[16]
  residual activity: 102%
[17]
  residual activity: 33%
[18]
  residual activity: 83%
[19]
  residual activity: 96%
[20]
  residual activity: 96%
[21]
  residual activity: 98%
[22]
  residual activity: 101%
[23]
  residual activity: 50%
[24]
  residual activity: 106%
[25]
  residual activity: 95%
[26]
  residual activity: 99.5%
[27]
  residual activity: 93.5%
[28]
  residual activity: 89%
[29]
  residual activity: 86%
[30]
  residual activity: 94.5%
[31]
  residual activity: 97.5%
[32]
  residual activity: 104%
[33]
  residual activity: 102%
[34]
  residual activity: 97.5%

Source: ChEMBL document CHEMBL4507276 (2021)
